Several values for one entry are separate records, joined by “and”; a condition that tells them apart may be missing. Equal values may be shown once. Entries after “also recorded” stand apart in the source; their conditions may differ. Read-outs that look alike come from different tables or passages of the source.
Tests used:
corneal cells = assay: Anterior chamber injection of dyes in rats: transmission electron microscopy; conditions: single anterior chamber injection; BBG 10 mg/ml, ICG 5 mg/ml, TB 1 mg/ml
Description: Brown Norway rats (Kyudo, Fukuoka, Japan), postnatal 8 weeks, were studied as follows. The rats were anesthetized with an intraperitoneal injection of pentobarbital and their pupils were dilated with topical 1% tropicamide and 2.5% phenylephrine hydrochloride. The anterior chamber was entered through the clear cornea with a 30-gauge needle mounted on a syringe. Then a single anterior chamber injection was performed with each dye, BBG (10, 1, 0.5, 0.25, 0.1 and 0.01 mg/ml), ICG (5 mg/ml), trypan blue (1 mg/ml), and the control OPEGUARD. solution (n=6 for each dye, total 54 eyes).
The dye remained in the anterior chamber and was followed by biomicroscopic examination for 2 months. The eyes were enucleated at 2 weeks and 2 months after operation. The eyes were analyzed by light microscopy, transmission and scanning electron microscopy.
The eyes were enucleated and the anterior segments were fixed in 1% glutaraldehyde and 1% paraformaldehyde in PBS. The specimens were postfixed in veronal acetate buffer osmium tetroxide (2%), dehydrated in ethanol and water, and embedded in Epon. Ultrathin sections were cut from blocks and mounted on copper grids.

cornea = assay: Anterior chamber injection of dyes in rats: light microscopy (HE); type: in vivo, Brown Norway rats; conditions: single anterior chamber injection; BBG 0.01-10 mg/ml, ICG 5 mg/ml, TB 1 mg/ml; 2 weeks and 2 months
Description: The eyes were fixed in 4% paraformaldehyde and cut in half, embedded in paraffin, deparaffinized in xylene, rehydrated in ethanol, and washed in phosphate-buffered saline (PBS). The 4 μm thick sections were stained by hematoxylin and eosin, and observed by light microscope.

anterior capsule [1] = conditions: stated for comparison, no test described; cited from earlier work
corneal endothelium = conditions: single anterior chamber injection; for apoptotic cell death (TUNEL) in corneal stromal cells, endothelium, ciliary body and lens cells: BBG 0.01-10 mg/ml, ICG 5 mg/ml
[2] = Osmolarity and pH of the BBG solution; type: physicochemical
retina [3] = conditions: rat, in vivo
Description: Brown Norway rats (n=78 males, 8 weeks old, Kyudo, Fukuoka, Japan) were anesthetized with an intraperitoneal injection of ketamine hydrochloride at a dose of 75 mg/kg body weight. One eye from each animal (total of n=6 per dose group) was vitrectomized using 0.05 ml of pure SF6 gas as described previously. Following the gas injection, 0.05 ml of BBG solution was injected into the vitreous cavity of each vitrectomized eye using a microscope for enhanced magnification during surgery. […] Twenty-four sham-operated eyes (injected with SF6 followed by 0.05 ml of intraocular irrigating solution) were used as controls.
The eyes were enucleated on day 14 and at 2 months post-operation and fixed in 1% glutaraldehyde and 1% paraformaldehyde in PBS. The specimens were postfixed in veronal acetate buffer osmium tetroxide (2%), dehydrated in ethanol and water, and embedded in Epon. Ultrathin sections were cut from blocks and mounted on copper grids.

anterior capsule [4] = assay: Capsular staining ability of BBG in pig eyes
Description: The capsular staining ability of BBG was assessed in pig eyes using graded concentrations of the dye.
The pig eyes were obtained from a local slaughterhouse and transported to the laboratory on ice. The extraocular muscles and other connective tissues were carefully cut off and the eyes were placed on the operation chamber. The BBG solution was prepared using the following method. Twenty milligrams of BBG (Coomassie. brilliant blue G 250; Signa-Aldrich, St. Louis, USA) were dissolved in 10 ml of intraocular irrigating solution (OPEGUARD.-MA, Senjyu Pharmaceutical Co., Ltd., Osaka, Japan) and sterilized with a syringe filter (Minisart. Sartorius AG, Goettingen, Germany). Under the operation microscope, the capsular staining by BBG was examined as follows. […] The anterior chamber was immediately irrigated by enhanced balanced salt solution (BSS Plus®, Santen Pharmaceuticals, Japan) and the excessive dye was easily washed out.
To deepen the anterior chamber, 1% sodium hyaluronate (Healon®, Pharmacia, Uppsala, Sweden) was injected. A CCC was initiated by preparing a small triangular anterior capsular flap with a bent 26-gauge disposable needle mounted on a viscoelastic syringe. The CCC was completed using a cystotome or capsulorhexis forceps.

ILM [5] = test system: ILM
anterior capsule [6] = assay: BBG-assisted continuous curvilinear capsulorhexis in a human eye; type: in vivo
Description: A person with a white mature cataract underwent BBG-assisted CCC and phacoemulsification with intraocular lens (IOL) implantation in August 2004. The patient had no other ocular diseases, such as glaucoma, uveitis or corneal disorders. Coomassie® BBG 250 (Sigma-Aldrich, St. Louis, USA) was dissolved in intraocular irrigating solution (OPEGUARD®-MA; Senjyu Pharmaceutical Co., Ltd., Osaka, Japan) at a dose of 0.25 mg/ml and sterilized with a syringe filter. The BBG solution was gently injected into the anterior chamber and then washed out immediately with balanced salt solution (BSS).

retina [7] = conditions: rat, in vivo; remark: listed apart in the source
ILM [8] = assay: BBG in ILM staining, effects and safety in human eyes (first attempt, 16 eyes); type: in vivo
Description: Sixteen eyes of 16 patients with a macular hole (MH) and epiretinal membranes (ERMS) were recruited from the outpatient unit of Kyushu University Hospital (Fukuoka, Japan) between August and September 2004. Patients with ocular diseases such as glaucoma, uveitis, and corneal disorder were excluded. This study was carried out with the approval from the appropriate institutional Ethics Committee and was performed in accordance with the ethical standards laid down in the 1989 Declaration of Helsinki. The possible advantages and risks of the present treatment were explained to the patients before surgery and informed consent was obtained from all patients. […] The final concentration of BBG was 0.25 mg/ml. […] Removal of the ILM was performed using ILM forceps (D.O.R.C.; Dutch Ophthalmic Research Center International b.v., Netherlands).
Postoperative examinations included slitlamp microscopy, opthalmoscopy, best corrected visual acuity (BCVA) and intraocular pressure. The visual field was evaluated with Humphrey Field Analyzer II (Humphrey Systems, Dublin, Calif., USA) after 2 months.

retina [9] = test system: retina
ILM [10] = test system: ILM; remark: listed apart in the source
Description: Since ILM peeling is impossible in rat eyes, the inventors examined the ability of BBG to stain the ILM in primate eyes. Two eyes from two cynomolgus monkeys at 3 years of age were used in this study. The animals were restrained in a squeeze cage and injected intramuscularly in the thigh with 20 mg/kg of ketamine hydrochloride (Sankyo Yell Pharmaceutical Products Co. Ltd., Japan) for general anesthesia. The monkeys were subsequently transported to an operating room. Surgery consisted of a standard three port pars plana vitrectomy with induction of a posterior vitreous detachment by suction with a vitrectomy cutter using triamcinolone acetonide injection for vitreous visualization.
Ten milligrams of BBG were dissolved in 20 ml of intraocular irrigating solution and sterilized with a syringe filter. The final concentration of BBG was 0.5 mg/ml. The prepared BBG solution (0.5 ml) was then injected gently into the vitreous cavity and washed out immediately with balanced salt solution (BSS Plus (Registered trademark), Santen, Osaka, Japan). Removal of the ILM was performed using ILM forceps.

[11] = BBG 10 mg/ml in intraocular irrigating solution (OPEGUARD-MA)
[12] = 0.25 mg/ml, 0.5 ml intravitreal, washed out immediately
[13] = individual patient case, BBG 0.25 mg/ml

CC1(C)C(/C=C/C=C/C=C/C=C2\N(CCCCS(=O)(=O)O)c3ccc4ccccc4c3C2(C)C)=[N+](CCCCS(=O)(=O)[O-])c2ccc3ccccc3c21 [ICG, Indocyanine green]
ultrastructure of corneal cells and endothelium (TEM) (corneal cells): some endothelial cells demonstrated signs of mitochondrial swelling | changes in hematoxilin and eosin stained sections of the cornea (cornea): no remarkable changes | concentration required for staining of the anterior capsule (comparison dyes) (anterior capsule [1]): 5 mg/mL | apoptotic cell death (TUNEL) in corneal stromal cells, endothelium, ciliary body and lens cells (corneal endothelium): no apparent apoptotic cell death was detected

CCOc1ccc(Nc2ccc(/C(=C3C=C/C(=[N+](/CC)Cc4cccc(S(=O)(=O)[O-])c4)C=C/3C)c3ccc(N(CC)Cc4cccc(S(=O)(=O)[O-])c4)cc3C)cc2)cc1.[Na+] [BBG, Brilliant Blue G]
Osmolarity ([2]; BBG 0.01 mg/ml in OPEGUARD-MA): 298 mOsm/KgH20 | pH ([2]; BBG 0.01 mg/ml in OPEGUARD-MA): 7.41 | Osmolarity ([2]; BBG 0.1 mg/ml in OPEGUARD-MA): 298 mOsm/KgH20 | pH ([2]; BBG 0.1 mg/ml in OPEGUARD-MA): 7.41 | osmolarity of prepared BBG solution ([2]; BBG 0.25 mg/ml in OPEGUARD-MA): 289 mOsm | pH of prepared BBG solution ([2]; BBG 0.25 mg/ml in OPEGUARD-MA): 7.44 | Osmolarity ([2]; BBG 1.0 mg/ml in OPEGUARD-MA): 300 mOsm/KgH20 | pH ([2]; BBG 1.0 mg/ml in OPEGUARD-MA): 7.42 | Osmolarity [2, 11]: 310 mOsm/KgH20 | pH [2, 11]: 7.41 | changes in inner nuclear, outer nuclear and retinal pigment epithelial cell layers (TEM) (retina [3]): no remarkable changes were observed | concentration providing satisfactory staining of the anterior capsule (anterior capsule [4]): 0.25 mg/mL | capsular staining (anterior capsule [4]; 0.1 mg/ml and 0.01 mg/ml): obscure | staining of the anterior capsule (anterior capsule [4]; 0.25 mg/ml to 1 mg/ml, staining deepened with concentration): stained the anterior capsule homogenously | minimal concentration needed to produce high quality staining with clear visualization (anterior capsule [4]; pig eye anterior capsule): 0.25 mg/mL | staining of the ERM in ERM cases (ILM [5]; 0.25 mg/ml): could not be confirmed | ILM staining in MH cases (ILM [5]; [12]): stained a bright blue color instantly | staining of the ILM of the area where the ERM had been removed (ILM [5]; 0.25 mg/ml, second injection after ERM peeling): well stained | removal of the ILM including the ERM during surgery (ILM [5]; 20 eyes): removed from all 20 eyes successfully | patients with improvement of 2 or more lines on the Snellen chart (ILM [5]; ERM cases, eight of 10 patients): 80% | mean foveal thickness of retina measured with OCT, postoperative (ILM [5]; ERM cases, preoperative 454.7±141.3 μm): 249.4±71.3 μm | postoperative median BCVA (ILM [5]; ERM cases, preoperative median 20/50): 20/32 | eyes with visual acuity improved by 2 or more Snellen lines (ILM [5]; MH cases, 9 of 10 eyes): 90% | postoperative median BCVA (ILM [5]; MH cases, preoperative median 20/100): 20/32 | closure of MH (ophthalmoscopy and OCT) (ILM [5]; all 10 MH cases): completely closed anatomically | complication: protraction of vitreous hemorrhage (ILM [5]; in vivo): one case | complications: iatrogenic peripheral retinal breaks (ILM [5]; in vivo): two cases | elevation of IOP (ILM [5]; in vivo): 26 mmHg | other adverse effects such as retinal pigment epithelium (RPE) atrophy (ILM [5]; in vivo): No other adverse effects | Postop. Retinal status (ILM [5]; individual MH case): MH closed | visibility of the anterior capsule during CCC (anterior capsule [6]; 0.25 mg/ml into anterior chamber, immediately irrigated, white mature cataract): clearly visible | corneal endothelial cell loss (anterior capsule [6]; after 2 months): 0.8% | visual acuity after surgery (anterior capsule [6]; improved from light perception (LP)): 20/20 | acute toxicity (corneal edema, severe inflammation or elevated intraocular pressure) (anterior capsule [6]; the following day): no acute toxicity | infiltration of inflammatory cells (light microscopy) (retina [7]): no infiltration of inflammatory cells was observed | toxic effects such as corneal edema, severe retinal edema, or endophthalmitis (surgical microscopy) (retina [7]): no toxic effects | staining of the ERMS (ILM [8]; 0.25 mg/ml): could not be confirmed | ILM staining (ILM [8]; [12]): stained a light blue color | elevation of intraocular pressure (ILM [8]; 16 eyes, BBG 0.25 mg/ml): None of the patients had an elevation of intraocular pressure | visual acuity (ILM [8]; 16 eyes, MH and ERM, BBG 0.25 mg/ml assisted peeling): recovered in all cases | Postop. Retinal status (ILM [8]; [13]): MH closed; also recorded: Fold (−); also recorded: Macular | complications (ILM [8]; [13]): Peripheral (2×) and none (13×) and Vitreous | Postop. BCVA (ILM [8]; individual patient case, BBG 0.25 mg/ml, follow up 2-4 months): 20/50 (2×) and 20/63 (2×) and 20/25 (2×) and 20/32 (4×) and 20/40 (3×) and 20/16 and 20/20 | other adverse effects due to BBG (ILM [8]; within the observation period): No other adverse effects | apoptotic cell death of retinal cells (retina [9]; all BBG dose groups, after 2 months): had not undergone apoptotic cell death | apoptotic cell death in retina (TUNEL) (retina [9]; intravitreal 10 mg/ml, day 14): one case of apoptotic cell death was observed from among ten sections | apoptotic cell ratio compared with control sections (retina [9]; intravitreal 10 mg/ml, day 14): not significantly different | TUNEL staining in the retina (retina [9]; intravitreal lower doses, day 14): no TUNEL staining was observed | ILM staining (ILM [10]; 0.5 mg/ml, 0.5 ml into vitreous cavity, washed out immediately): stained a light blue color | concentration of BBG required to stain the ILM of primates in comparison with ICG (ILM [10]; ratio to ICG concentration): about 1/10 | apoptotic cell death (TUNEL) in corneal stromal cells, endothelium, ciliary body and lens cells (corneal endothelium): no TUNEL staining was observed

Cc1cc(-c2ccc(/N=N/c3c(S(=O)(=O)O)cc4cc(S(=O)(=O)O)cc(N)c4c3O)c(C)c2)ccc1/N=N/c1c(S(=O)(=O)O)cc2cc(S(=O)(=O)O)cc(N)c2c1O [TB, Trypan Blue]
concentration required for staining of the anterior capsule (comparison dyes) (anterior capsule [1]): 1 mg/mL | apoptotic cell death of corneal endothelium, share of the total endothelial cells (corneal endothelium; TB 1 mg/ml): 2%

— patent US7731941B2, “Staining composition for staining an ophthalmic membrane” (priority 2004, dated 2010)
